From patent publication US20080090834A1, “SELECTIVE AZOLE PDE10A INHIBITOR COMPOUNDS” (Pfizer Inc, priority 2006, published 2008) come the findings set out here.

The test deals with T1, cloned rat PDE10A full-length enzyme (Rattus norvegicus, UniProt Q9QYJ6).
T1 construct: cloned rat PDE10A full-length enzyme grown in transfected Sf9 insect cells; made in house; host or cells: Sf9 insect cells
T1 sequence (Q9QYJ6 1-794): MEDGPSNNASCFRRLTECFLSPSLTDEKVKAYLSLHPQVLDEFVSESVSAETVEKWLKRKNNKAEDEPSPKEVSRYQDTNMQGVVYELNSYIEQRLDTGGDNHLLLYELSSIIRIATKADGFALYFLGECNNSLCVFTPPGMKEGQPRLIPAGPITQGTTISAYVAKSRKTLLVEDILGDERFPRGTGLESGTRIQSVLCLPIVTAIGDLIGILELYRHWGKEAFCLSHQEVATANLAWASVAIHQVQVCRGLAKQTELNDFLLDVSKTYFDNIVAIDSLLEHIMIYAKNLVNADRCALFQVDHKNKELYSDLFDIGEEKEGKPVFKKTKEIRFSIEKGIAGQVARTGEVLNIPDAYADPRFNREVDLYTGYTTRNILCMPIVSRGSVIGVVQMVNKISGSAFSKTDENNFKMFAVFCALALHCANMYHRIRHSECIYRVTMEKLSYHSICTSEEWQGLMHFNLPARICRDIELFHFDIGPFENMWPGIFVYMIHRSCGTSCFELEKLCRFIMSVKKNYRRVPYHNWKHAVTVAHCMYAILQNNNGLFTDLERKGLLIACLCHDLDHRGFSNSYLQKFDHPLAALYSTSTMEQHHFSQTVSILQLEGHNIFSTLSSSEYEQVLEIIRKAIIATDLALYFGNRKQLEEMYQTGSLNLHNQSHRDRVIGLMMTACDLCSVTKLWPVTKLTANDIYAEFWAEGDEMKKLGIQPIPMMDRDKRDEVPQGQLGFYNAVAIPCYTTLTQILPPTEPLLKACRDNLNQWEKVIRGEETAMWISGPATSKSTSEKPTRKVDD
Nature of the test: PDE10 enzyme inhibition, [3H]cAMP scintillation proximity assay. The note with it: rat PDE10A from Sf9 cells, 20 nM [3H]cAMP, SPA beads, 20 minute incubation at room temperature. Format: biochemical. How it is done: Compounds of the present invention were evaluated for ability to inhibit PDE10 enzyme with the following Assay procedure
The enzyme used in the procedure was cloned rat PDE10A full-length enzyme grown in transfected Sf9 insect cells. Cloned enzyme was extracted from homogenized cell pellets and stored frozen in homogenizing buffer until use. Compounds were initially dissolved in 100% DMSO and diluted out in 20 percent DMSO/water solution. Final concentration of DMSO in the assay was 2 percent as compounds were tested in triplicate in 96 well plates. Compound solution was placed in well, then tritiated cyclic AMP (New England Nuclear NET275) in assay buffer was added at 20 nM concentration. Then PDE10 enzyme in assay buffer of 50 mM Tris, 8.3 mM MgCl2, pH 7.5 at room temperature was added for a final assay volume of 100 ul. Concentration of enzyme was added such that less than 10 percent of [3H]cAMP at 20 nM was converted to detectable end product, [3H]AMP bound to SPA (Scintillation Proximity Assay) beads. Phosphodiesterase scintillation proximity yttrium silicate beads from Amersham Biosciences (RPNQ0150) were added (50 ul at 20 mg/ml) after a 20 minute incubation at room temperature. Zinc sulphate as a component of the beads stops the phosphodiesterase reaction.
Non-specific binding to SPA beads was determined by addition of 1 uM papaverine. Total conversion by enzyme without inhibitor of [3H]cAMP to [3H]AMP, as detected by scintillation of [3H]AMP bound to yttrium silicate beads, was determined in the presence of vehicle-only.

Structures can show the parent of a compound that is named as a salt.

Broadly, the IC50 is the concentration that inhibits the measured activity by half. Read a low IC50 as greater potency in that assay. The compound `Cc1ncccc1-n1cc(-c2nccs2)nc1-c1ccc(-n2ccc3cccnc32)cc1` [Example 28, 1-(4-(1-(2-methylpyridin-3-yl)-4-(thiazol-2-yl)-1H-imidazol-2-yl)phenyl]-1H-pyrrolo[2,3-b]pyridine] showed an IC50 of 44.1 nM.
In the case of `COc1ccc(-n2cc(-c3nccs3)nc2-c2ccc(-n3ccc4cccnc43)cc2)cn1` [Example 29, 1-(4-(1-(6-methoxypyridin-3-yl)-4-(thiazol-2-yl)-1H-imidazol-2-yl)phenyl)-1H-pyrrolo[2,3-b]pyridine], half-maximal inhibition (IC50) was put at 0.383 nM.
Compound `CN(C)c1ccc(-n2cc(-c3nccs3)nc2-c2ccc(-n3ccc4cccnc43)cc2)cn1` [Example 30, 5-(2-(4-(1H-pyrrolo[2,3-b]pyridin-1-yl)phenyl)-4-(thiazol-2-yl)-1H-imidazol-1-yl)-N,N′-dimethylpyridin-2-mine] showed an IC50 of 0.607 nM.
Under `CNCCc1ccc(-n2cc(-c3nccs3)nc2-c2ccc(-n3ccc4cccnc43)cc2)cc1` [Example 31] stands 6.63 nM; under `FC(F)(F)c1ccc(-n2cc(-c3nccs3)nc2-c2ccc(-n3ccc4cccnc43)cc2)cn1` [Example 32, 1-(4-(1-(6-(trifluoromethyl)pyridin-3-yl)-4-(thiazol-2-yl)-1H-imidazol-2-yl)phenyl)-1H-pyrrolo[2,3-b]pyridine], 2.13 nM; under `CNCc1ccc(-n2cc(-c3nccs3)nc2-c2ccc(-n3ccc4cccnc43)cc2)cc1` [Example 33, (4-(2-(4-(1H-pyrrolo[2,3-b]pyridin-1-yl)phenyl)-4-(thiazol-2-yl)-1H-imidazol-1-yl)phenyl-N-methylmethanamine Hydrochloride], 14.1 nM.
Under `c1cnc2c(c1)ccn2-c1ccc(-c2nc(-c3nccs3)cn2-c2ccc(N3CCOCC3)nc2)cc1` [Example 34, 1-(4-(1-(6-morpholinopyridin-3-yl)-4-(thiazol-2-yl)-1H-imidazol-2-yl)phenyl)-1H-pyrrolo[2,3-b]pyridine] stands 0.436 nM; under `c1ccc(-c2cn(-c3cccnc3)c(-c3ccc(-n4ncc5ccccc54)cc3)n2)nc1` [Example 35, 1-(4-(4-(pyridin-2-yl)-1-(pyridin-3-yl)-1H-imidazol-2-yl)phenyl)-1H-indazole], 27.8 nM; under `c1ccc(-c2cn(-c3cccnc3)c(-c3ccc(-n4ccc5ccccc54)cc3)n2)nc1` [Example 36, 1-(4-(4-(pyridin-2-yl)-1-(pyridin-3-yl)-1H-imidazol-2-yl)phenyl)-1H-indole], 281 nM.
With `Fc1cccc2ccn(-c3ccc(-c4nc(-c5ccccn5)cn4-c4cccnc4)cc3)c12` [Example 37] the figure was 30.8 nM; with `Fc1c(F)c(F)c2c(ccn2-c2ccc(-c3nc(-c4ccccn4)cn3-c3cccnc3)cc2)c1F` [Example 38, 4,5,6,7-tetratfluoro-1-(4-(4-(pyridin-2-yl)-1-(pyridin-3-yl)-1H-imidazol-2-yl)phenyl)-1H-indole], 170 nM; with `Clc1cccc2c1ccn2-c1ccc(-c2nc(-c3ccccn3)cn2-c2cccnc2)cc1` [Example 39, 4-chloro-1-(4-(4-(pyridin-2-yl)-1-(pyridin-3-yl)-1H-imidazol-2-y TFA salt], 113 nM.
Turning to `N#Cc1cccc2c1ccn2-c1ccc(-c2nc(-c3ccccn3)cn2-c2cccnc2)cc1` [Example 40, 1-(4-(4-(pyridin-2-yl)-1-(pyridin-3-yl)-1H-imidazol-2-yl)phenyl)-1H-indole-4-carbonitrile bis-TFA salt], the IC50 worked out at 65.4 nM.
With `Cc1cn(-c2ccc(-c3nc(-c4ccccn4)cn3-c3cccnc3)cc2)cn1` [Example 41, 3-(2-(4-(4-methyl-1H-imidazol-1-yl)phenyl)-4-(pyridin-2-yl)-1H-imidazol-1-yl)pyridine] the figure was 293 nM; with `c1ccc(-c2cn(-c3cccnc3)c(-c3ccc(-n4nnc5ccccc54)cc3)n2)nc1` [Example 42, 1-(4-(4-(pyridin-2-yl)-1-(pyridin-3-yl)-1H-imidazol-2-yl)phenyl)-1H-benzo[d][1,2,3]triazole bis-TFA salt], 67.8 nM.
With `c1ccc(-c2cn(-c3cccnc3)c(-c3ccc(-n4c(-c5ccccn5)nc5ccccc54)cc3)n2)nc1` [Example 43, 2-(pyridin-2-yl)-1-(4-(4-(pyridin-2-yl)-1-(pyridin-3-yl)-1H-imidazol-2-yl)phenyl)-1H-benzo[d]imidazole] the figure was 33.1 nM.
Under `c1ccc(-c2cn(-c3cccnc3)c(-c3ccc(-n4ccnc4)cc3)n2)nc1` [Example 44, 3-(2-(4-(1H-imidazol-1-yl)phenyl)-4-(pyridin-2-yl)-1H-imidazol-1-yl)pyridine] stands 522 nM.
In turn, `c1ccc(-c2cn(-c3cccnc3)c(-c3ccc(-n4cnc5ccccc54)cc3)n2)nc1` [Example 45, 1-(4-(4-(pyridin-2-yl)-1-(pyridin-3-yl)-1H-imidazol-2-yl)phenyl)-1H-benzo[d]imidazole] showed a half-maximal inhibitory concentration (IC50) of 97.8 nM.
Compound `Cc1ccc(-n2cc(-c3ccccn3)nc2-c2ccc(-n3ccc4nccnc43)cc2)cn1` [Example 50, 5-(4-(1-(6-methylpyridin-3-yl)-4-(pyridin-2-yl)-1H-imidazol-2-yl)phenyl)-5H-pyrrolo[3,2-b]pyrazine] showed an IC50 below 3.47 nM.
Under `c1ccc(-c2cn(-c3cccnc3)c(-c3ccc(-n4nnc5cccnc54)cc3)n2)nc1` [Example 51, 3(4-(4-(pyridin-2-yl)-1-(pyridin-3-yl)-1H-imidazol-2-yl)phenyl)-3H-[1,2,3]triazole[4,5-b]pyridine bis-TFA salt] stands 11.5 nM.
`Cc1ccc(-n2cc(-c3ccccn3)nc2-c2ccc(-n3ccc4ncccc43)cc2)cn1` [Example 52, 1-(4-(1-(6-methylpyridin-3-yl)-4-(pyridin-2-yl)-1H-imidazol-2-yl)phenyl)-1H-pyrrolo[3,2-b]pyridine] gave a 50% inhibitory concentration (IC50) of 9.32 nM.
With `Cc1ccc(-n2cc(-c3ccccn3)nc2-c2ccc(-n3ccc4ccncc43)cc2)cn1` [Example 53] the figure was 5.69 nM.
In turn, `Cc1ccc(-n2cc(-c3ccccn3)nc2-c2ccc(-n3ccc4cnccc43)cc2)cn1` [Example 54, 1-(4-(1-(6-methylpyridine-3-yl)-4-(pyridin-2-yl)-1H-imidazol-2-yl)phenyl)-1H-pyrrolo[3,2-c]pyridine] yielded an IC50 of 5.82 nM.
Under `Cc1ccc(-n2cc(-c3ccccn3)nc2-c2ccc(-n3cnc4cncnc43)cc2)cn1` [Example 55, 9-(4-(1-(6-methylpyridin-3-yl)-4-(pyridin-2-yl)-1H-imidazol-2-yl)phenyl-9H-purine and 7-(4-(1-(6-methylpyridin-3-yl)-4-pyridin-2-yl)-1H-imidazol-2-yl))phenyl)-7H-purine] stands 10.2 nM; under `Cc1ccc(-n2cc(-c3ccccn3)nc2-c2ccc(-n3ncc4ccncc43)cc2)cn1` [Example 56, 1-(4-(1-(6-methylpyridin-3-yl)-4-(pyridin-2-yl)-1H-imidazol-2-yl)phenyl)-1H-pyrazolo[3,4-]pyridine], 6.44 nM; under `Cc1ccc(-n2cc(-c3ccccn3)nc2-c2ccc(-n3c(C)nc4cccnc43)cc2)cn1` [Example 57, 2-methyl-3-(4-(1-(6-methylpyridin-3-yl)-4-(pyridin-2-yl)-1H-imidazol-2-yl)phenyl)-3H-imidazo[4,5-b]pyridine], 1.89 nM.
With `Cc1ccc(-n2cc(-c3ccccn3)nc2-c2ccc(-n3c(C(F)(F)F)nc4cccnc43)cc2)cn1` [Example 58, 2(trifluoromethyl)-3(4-(1-(6-methylpyridin-3-yl)-4-(pyridin-2-yl)-1H-imidazol-2-yl)phenyl)-3H-imidazo[4,5-b]pyridine] the figure was 1.06 nM; with `Cc1ccc(-n2cc(-c3ccccn3)nc2-c2ccc(-n3c(C(C)C)nc4cccnc43)cc2)cn1` [Example 59, 2-isopropyl-3-(4-(1-(6-methylpyridin-3-yl)-4-(pyridin-2-yl)-1H-imidazol-2-yl)phenyl)-3H-imidazo[4,5-b]pyridine], 0.831 nM.
